{"source": "patent US12565500B2", "about": "“Substituted pyrrolo[1,2-b]pyridazines and pyrrolo[2,1-f][1,2,4]triazines as Btk inhibitors” (BIOGEN MA INC., priority 2019, dated 2026)", "key": {"[1]": {"biological_target": "BTK (Homo sapiens (Human), UniProt Q06187)", "sequence (Q06187 whole entry)": "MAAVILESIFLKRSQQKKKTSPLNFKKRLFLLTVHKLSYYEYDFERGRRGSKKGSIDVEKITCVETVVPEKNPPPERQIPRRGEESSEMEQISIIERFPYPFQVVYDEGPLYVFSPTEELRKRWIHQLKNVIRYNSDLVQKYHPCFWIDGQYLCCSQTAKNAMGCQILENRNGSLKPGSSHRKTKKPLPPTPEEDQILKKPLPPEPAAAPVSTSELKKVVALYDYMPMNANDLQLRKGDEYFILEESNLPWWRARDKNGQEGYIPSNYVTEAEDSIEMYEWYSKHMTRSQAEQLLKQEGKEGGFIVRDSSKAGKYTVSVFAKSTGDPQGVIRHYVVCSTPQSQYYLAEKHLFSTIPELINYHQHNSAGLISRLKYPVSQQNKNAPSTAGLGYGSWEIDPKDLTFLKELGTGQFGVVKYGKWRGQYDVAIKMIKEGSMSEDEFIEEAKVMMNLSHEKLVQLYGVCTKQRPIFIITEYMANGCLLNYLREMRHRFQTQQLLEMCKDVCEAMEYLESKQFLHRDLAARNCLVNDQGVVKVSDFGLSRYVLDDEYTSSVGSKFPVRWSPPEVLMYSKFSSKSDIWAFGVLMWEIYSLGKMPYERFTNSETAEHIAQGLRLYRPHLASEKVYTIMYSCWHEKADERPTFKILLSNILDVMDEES", "assay": "In Vitro BTK Kinase Assay: Btk-PolyGAT-LS Assay", "type": "biochemical", "settings": "ATP 10 μM, polyGAT 100 nM, BTK 0.25 nM", "procedure": "In Vitro BTK Kinase Assay: Btk-PolyGAT-LS Assay\nThe purpose of the BTK in vitro assay is to determine compound potency against BTK through the measurement of IC50. Compound inhibition is measured after monitoring the amount of phosphorylation of a fluorescein-labeled polyGAT peptide (Invitrogen PV3611) in the presence of active BTK enzyme (Upstate 14-552), ATP, and inhibitor. The BTK kinase reaction was done in a black 96 well plate (costar 3694). For a typical assay, a […] aliquot of a ATP/peptide master mix (final concentration; ATP 10 μM, polyGAT 100 nM) in kinase buffer (10 mM Tris-HCl pH 7.5, 10 mM MgCl2, 200 μM Na3PO4, 5 mM DTT, 0.01% Triton X-100, and 0.2 mg/ml casein) is added to each well. Next, […] of a 4-fold, 40× compound titration in 100% DMSO solvent is added, followed by adding 15 uL of BTK enzyme mix in 1× kinase buffer (with a final concentration of 0.25 nM). The assay is incubated for 30 minutes before being stopped with […] of a 50 mM EDTA solution. Aliquots (5 uL) of the kinase reaction are transferred to a low volume white 384 well plate (Coming 3674), and 5 pL of a 2× detection buffer (Invitrogen PV3574, with 4 nM Tb-PY20 antibody, Invitrogen PV3552) is added. The plate is covered and incubated for 45 minutes at room temperature. Time resolved fluorescence (TRF) on Molecular Devices M5 (332 nm excitation; 488 nm emission; 518 nm fluorescein emission) is measured. IC50 values are calculated using a four parameter fit with 100% enzyme activity determined from the DMSO control and 0% activity from the EDTA control.\n“†” represents an IC50 of greater than 1 μM and equal to or less than 10 μM. “††” represents an IC50 of greater than 10 nM and equal to or less than 1 μM (10 nM<IC50≤1 μM). “†††” represents an IC50 of greater than 1 nM and equal to or less than 10 nM (1 nM<IC50≤10 nM)."}, "[2]": {"system": "CD69 expression on CD19+ B cells in human whole blood", "assay": "In Vitro whole blood CD69 Assay", "type": "cell-based", "settings": "B-cell, human heparinized whole blood, anti-human IgD stimulation", "procedure": "In Vitro whole blood CD69 Assay\nHuman heparinized venous blood from health donors was aliquoted into 96-well plate and “spiked” with serial dilutions of formula I compounds in DMSO or with DMSO without drug. The final concentration of DMSO in all wells was 0.1%. The plate was incubated at 37° C. for 30 min. Drug-containing samples were stimulated with 0.1 μg/mL mouse anti-human IgD-dextran (1A^62) or 20 μg/mL polyclonal rabbit F(ab′)2 anti-human IgD. Phosphate-buffered saline (PBS) was added to the negative control unstimulated sample and the plates were incubated overnight (18 to 22 hours) at 37° C. Cells were stained with fluorochrome-conjugated anti-CD19 and anti-CD69 antibodies. Lyse/fix solution was used to remove red blood cells by hypotonic lysis and to fix the remaining cells, which were then analyzed by flow cytometry. CD19+ B cells were gated and analyzed for CD69 expression. The percentage of B cells expressing CD69 was plotted versus the log 10 of the concentration of the drug and the best-fit curves (variable Hill slope) were generated to obtain the IC50 value."}}, "note": "pIC50: −log10 of the molar value."}
{"smiles": "Cc1cc(-c2ncnn3cccc23)ccc1CN1CCN(C2CC(F)(F)C2)C(C)C1=O", "note": "(stereo not shown) [Compound 3, 4-(3,3-difluorocyclobutyl)-3-methyl-1-(2-methyl-4-(pyrrolo[2,1-f][1,2,4]triazin-4-yl)benzyl)piperazin-2-one]", "values": [{"measurement": "pIC50", "setting": "[1]", "value": "5.00 to 6.00"}]}
{"smiles": "Cc1cc(-c2ncnn3cccc23)ccc1CN1CCN(CC(C)C)C(C)C1=O", "note": "(stereo not shown) [Compound 2, 4-isobutyl-3-methyl-1-(2-methyl-4-(pyrrolo[2,1-f][1,2,4]triazin-4-yl)benzyl)piperazin-2-one]", "values": [{"measurement": "pIC50", "setting": "[2]", "value": "≤ 5.00"}, {"measurement": "pIC50", "setting": "[1]", "value": "6.00 to 8.00"}]}
{"smiles": "Cc1cc(-c2ncnn3cccc23)ccc1CN1CCNC(C)C1=O", "note": "(stereo not shown) [Compound 1, 3-methyl-1-(2-methyl-4-(pyrrolo[2,1-f][1,2,4]triazin-4-yl)benzyl)piperazin-2-one]", "values": [{"measurement": "pIC50", "setting": "[2]", "value": "≤ 5.00"}, {"measurement": "pIC50", "setting": "[1]", "value": "5.00 to 6.00"}]}
{"smiles": "Cc1cc(-c2ncnn3cc(-c4cnn(C)c4)cc23)ccc1CN1CCN(CC(C)C)C(C)C1=O", "note": "(stereo not shown) [Compound 4, 4-isobutyl-3-methyl-1-(2-methyl-4-(6-(1-methyl-1H-pyrazol-4-yl)pyrrolo[2,1-f][1,2,4]triazin-4-yl)benzyl)piperazin-2-one]", "values": [{"measurement": "pIC50", "setting": "[2]", "value": "≤ 5.00"}, {"measurement": "pIC50", "setting": "[1]", "value": "8.00 to 9.00"}]}
